The test system of one data set is cancer cell lines. To be noted: confocal microscopy, 37°C; "completely internalized only after 2 h"; ref [14], [16]; cited from earlier work.
The next data set concerns living cells. To be noted: after 24 h; mass spectrometry; ref [14]; cited from earlier work.
The test system of data set [1] is NT4 (NT4-biotin captured on streptavidin CM5 chip). The data set can be described thus: SPR, synthetic sulfated oligosaccharides injected over immobilized NT4. The settings on record: for Kd (koff) / Ka (Kon) / Kd: immobilized NT4-biotin, HBS-EP+ pH 7.4, 1:1 Langmuir model, oligosaccharide as analyte; for Kd (koff): dissociation rate; for oligosaccharide binding to immobilized NT4 (in words): oligosaccharide 100 μg/ml (Figure 4E). The format is binding. The text has this: Eight-mer and nine-mer oligosaccharides S00 (GlcNAc-GlcA)4 α-paranitrophenyl, S04 (GlcNS-GlcA)4 α-paranitrophenyl, S06a (GlcA-GlcNS)2-(GlcA-GlcNS,6S)2-GlcA α-paranitrophenyl (9-mer), and S06b GlcNS-GlcA-GlcNS-IdoA,2S-GlcNS-IdoA,2S-GlcNS-GlcA α-paranitrophenyl were purchased from Iduron. In all oligosaccharides, the units were linked together by α (1–4) bonds only and carry a paranitrophenyl group. S12 (ΔHexA,2S α1-4 GlcNS,6S)3 (9-mer) was from Amsbio, and its first glycoside is unsaturated.
(§1) NT4-biotin was captured on a CM5 sensor chip where streptavidin had previously been immobilized by standard amine coupling. Briefly, the sensor chip surface was activated with a mixture of 0.1 M 1-ethyl-3(3-dimethylaminopropyl)-carbodiimide (EDC) and 0.4 M N-hydroxyl succinimide (NHS) for 7 min at a flow rate of 5 μl/min. Streptavidin was injected over the surface for 7 min, and finally, 1 M ethanolamine pH 8.5 was used to block any activated carboxyl groups. NT4-biotin, diluted in HBS-EP+ (Hepes 10 mM, NaCl 150 mM, EDTA 3.4 mM, 0.05% p20, pH 7.4) to 30 μg/ml, was injected for 2 min at a flow rate of 10 μl/min.
(§2) HSPG and oligosaccharides were diluted to different concentrations in HBS-EP+ and then injected over immobilized NT4 peptides. The sensor chip surface was regenerated with a short pulse of 10 mM NaOH/0.5 M NaCl 5 min after the end of the injections.
(§3) Kinetics were analyzed with the Biacore T100 evaluation 1.1.1 software using the 1:1 Langmuir model to fit the curves.
In general terms: SPR reads the build-up and loss of mass on a sensor chip optically.

The test system is the same in data set [2]. The data set can be described thus: SPR, rHSPG injected over immobilized NT4 (Biacore T100). The format is binding. To be noted: for Ka (Kon): HBS-EP+ (Hepes 10 mM, NaCl 150 mM, EDTA 3.4 mM, 0.05% p20, pH 7.4), 1:1 Langmuir model, full-length recombinant human HSPG as analyte; for Kd (koff) / Kd: HBS-EP+ pH 7.4, 1:1 Langmuir model, rHSPG as analyte; for Kd (koff): dissociation rate. The method, then:
Experiments were performed on a Biacore T100 instrument (GE Healthcare). All materials were purchased from GE Healthcare unless otherwise specified. Full-length recombinant human HSPG were purchased from R&D Systems. Syndecan-3, syndecan-4, and glypican-3 were obtained from the mouse myeloma cell line (NS0), and glypican-4 was obtained from the Chinese Hamster Ovary cell line. The activity of syndecan-4, glypican-3, and glypican-4 was measured by the supplier as the ability of the immobilized protein to bind FGF-basic. The activity of syndecan-3 was measured by the supplier as the ability of the immobilized protein to inhibit adhesion of Saos-2 human osteosarcoma cells to human fibronectin.
as §1, §2, §3

Data set [3] deals with recombinant human syndecan-4 (human, UniProt P31431 19-198). The data set can be described thus: SPR; Biacore T100; NT4-biotin captured on streptavidin on a CM5 chip; HSPG diluted in HBS-EP+ (Hepes 10 mM, NaCl 150 mM, EDTA 3.4 mM, 0.05% p20, pH 7.4) injected over it; 1:1 Langmuir model. To be noted: both partners purified.
Data set [4] has as its target recombinant human glypican-3 (human, UniProt P51654 25-580). Described as above. The settings on record: both partners purified.
Data set [5] concerns the target T1, recombinant human glypican-4 (human, UniProt O75487 19-529).
T1 construct: also called GPC4; rHSPG; source: bought: R&D Systems; from the Chinese Hamster Ovary cell line
T1 sequence (looked up): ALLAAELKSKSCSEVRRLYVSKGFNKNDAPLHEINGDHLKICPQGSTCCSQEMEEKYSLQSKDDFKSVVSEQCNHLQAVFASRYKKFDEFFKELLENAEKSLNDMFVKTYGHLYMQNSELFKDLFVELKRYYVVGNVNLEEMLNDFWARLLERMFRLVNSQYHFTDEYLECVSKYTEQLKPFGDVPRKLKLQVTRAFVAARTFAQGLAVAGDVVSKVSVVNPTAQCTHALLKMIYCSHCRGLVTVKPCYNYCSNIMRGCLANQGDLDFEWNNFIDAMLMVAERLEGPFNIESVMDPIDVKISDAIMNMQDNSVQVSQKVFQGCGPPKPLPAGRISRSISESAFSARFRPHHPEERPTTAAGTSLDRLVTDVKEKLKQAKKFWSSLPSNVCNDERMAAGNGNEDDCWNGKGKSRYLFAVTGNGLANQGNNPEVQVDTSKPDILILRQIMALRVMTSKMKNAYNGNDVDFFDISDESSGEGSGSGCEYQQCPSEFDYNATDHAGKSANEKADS
The description is as above. The settings on record: both partners purified.

The source of these data is paper PMC6759624, “Unraveling Heparan Sulfate Proteoglycan Binding Motif for Cancer Cell Selectivity” (Frontiers in Oncology, 2019).

“(pyELYENKPRRPYIL)4K2K-PEG12-K(biotin) [NT4-biotin]”: in the data set on cancer cell lines, the “time to complete internalization” value is given as 2 h. In addition, the “stability on degradation by living cells” value in the data set on living cells is recorded as “still stable after 24 h”.

As to “(GlcA-GlcNS)2-(GlcA-GlcNS,6S)2-GlcA α-paranitrophenyl [S06a]”, in data set [1], the “Kd (koff)” value turned out to be 0.002575 s⁻¹; the “Ka (Kon)” value was 1060 M⁻¹ s⁻¹; the Kd (as a rule, the free concentration of one partner at which half of the binding sites on the other are occupied at equilibrium, for simple one-to-one binding) came out at 2430 nM; the “oligosaccharide binding to immobilized NT4 (in words)” value (“oligosaccharide binding” for short) is “bound NT4 better”.

As for (GlcNS-GlcA)4 α-paranitrophenyl [S04], the “oligosaccharide binding” value in data set [1] is reported as “almost total loss of binding”.

On to “Glypican-3: full-length recombinant human HSPG from mouse myeloma cell line (NS0), R&D Systems”, for which, in data set [2], the “Ka (Kon)” value was 23920 M⁻¹ s⁻¹, the “Kd (koff)” value worked out at 0.001433 s⁻¹ and the Kd was 59.9 nM.

On to “GlcNS-GlcA-GlcNS-IdoA,2S-GlcNS-IdoA,2S-GlcNS-GlcA α-paranitrophenyl [S06b]”, for which, in data set [1], the “Kd (koff)” value worked out at 0.004039 s⁻¹, the “Ka (Kon)” value was found to be 1490 M⁻¹ s⁻¹ and binding was characterised by a dissociation constant (Kd) of 2700 nM.

On to (ΔHexA,2S α1-4 GlcNS,6S)3 [S12], for which, in data set [1], the “Kd (koff)” value came to 0.0009126 s⁻¹, the “Ka (Kon)” value came to 3530 M⁻¹ s⁻¹, binding was characterised by a dissociation constant (Kd) of 258 nM and the “oligosaccharide binding” value is listed as “best-binding oligosaccharide”.

B1: Glypican-4: full-length recombinant human HSPG from Chinese Hamster Ovary cell line, R&D Systems (protein)
chain: ALLAAELKSKSCSEVRRLYVSKGFNKNDAPLHEINGDHLKICPQGSTCCSQEMEEKYSLQSKDDFKSVVSEQCNHLQAVFASRYKKFDEFFKELLENAEKSLNDMFVKTYGHLYMQNSELFKDLFVELKRYYVVGNVNLEEMLNDFWARLLERMFRLVNSQYHFTDEYLECVSKYTEQLKPFGDVPRKLKLQVTRAFVAARTFAQGLAVAGDVVSKVSVVNPTAQCTHALLKMIYCSHCRGLVTVKPCYNYCSNIMRGCLANQGDLDFEWNNFIDAMLMVAERLEGPFNIESVMDPIDVKISDAIMNMQDNSVQVSQKVFQGCGPPKPLPAGRISRSISESAFSARFRPHHPEERPTTAAGTSLDRLVTDVKEKLKQAKKFWSSLPSNVCNDERMAAGNGNEDDCWNGKGKSRYLFAVTGNGLANQGNNPEVQVDTSKPDILILRQIMALRVMTSKMKNAYNGNDVDFFDISDESSGEGSGSGCEYQQCPSEFDYNATDHAGKSANEKADS
Take B1: in data set [2], the “Ka (Kon)” value stood at 8710 M⁻¹ s⁻¹, the “Kd (koff)” value is 0.0006719 s⁻¹ and the Kd amounted to 77.1 nM.

B2: Syndecan-4: full-length recombinant human HSPG from mouse myeloma cell line (NS0), R&D Systems (protein)
chain: ESIRETEVIDPQDLLEGRYFSGALPDDEDVVGPGQESDDFELSGSGDLDDLEDSMIGPEVVHPLVPLDNHIPERAGSGSQVPTEPKKLEENEVIPKRISPVEESEDVSNKVSMSSTVQGSNIFERTEVLAALIVGGIVGILFAVFLILLLMYRMKKKDEGSYDLGKKPIYKKAPTNEFYA
In the case of B2, in data set [2], the “Ka (Kon)” value turned out to be 9010 M⁻¹ s⁻¹, the “Kd (koff)” value was determined as 0.002316 s⁻¹ and the Kd is 257 nM.

B3: NT4-biotin (pyELYENKPRRPYIL)4K2K-PEG12-K(biotin) (peptide)
peptide: ELYENKPRRPYIL
modifications: pyroglutamate at position 1 (pyE); the four arms are built on a branching core of lysines, K2K-PEG12-K(biotin)
notes: the 13-amino-acid arm of the tetrabranched peptide; the first letter is pyroglutamate (printed pyE); Tetrabranched: four copies of the arm joined by their C-termini to the amines of a three-lysine core (K2K), followed by PEG12 and Lys(biotin); The core is not written as a chain; also called NT4 peptide; NT4 conjugated with biotin; source: synthetic peptide (Fmoc chemistry, HPLC purified); not …
Regarding B3, the Kd stood at 257 nM in data set [3], 59.9 nM in data set [4] and 77.1 nM in data set [5]. Also, the koff – broadly, a measure of how fast the partners let go of each other – in data set [3] is 0.00232 s⁻¹; in data set [4], 0.00143 s⁻¹; in data set [5], 0.000672 s⁻¹. The kon (usually the rate constant with which the complex forms) came to 9010 M⁻¹ s⁻¹ in data set [3], 23900 M⁻¹ s⁻¹ in data set [4] and 8710 M⁻¹ s⁻¹ in data set [5].
